Results reported in ChEMBL document CHEMBL1201862, “PubChem BioAssay data set” (2004).
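Dose response: 5 concentrations. Exposure: 48 h. Format: 96-well plates. Endpoint: linear interpolation; highest concentration if not reached. GI50 = concentration required for 50% inhibition of growth.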 Calls of active or inactive are those of the source. Cut-off read from the data, not from the text of the source: active = GI50 up to about 1.1 µM and inactive = higher.

How the values were obtained:
Experiment in all cases: NCI-60 cell line screen, 48 h
SNB-19 = tested on: SNB-19
SW-620 = tested on: SW-620
786-0 = tested on: 786-0
HL-60 = tested on: HL-60
COLO 205 = tested on: COLO 205
KM12 = tested on: KM12
NCI-H460 = tested on: NCI-H460
UACC-62 = tested on: UACC-62
OVCAR-3 = tested on: OVCAR-3
HOP-92 = tested on: HOP-92
OVCAR-4 = tested on: OVCAR-4
ACHN = tested on: ACHN
M14 = tested on: M14
RXF 393 = tested on: RXF 393
OVCAR-5 = tested on: OVCAR-5
EKVX = tested on: EKVX
SK-MEL-2 = tested on: SK-MEL-2

Measured: GI50

CCN(CC)CC(C(=O)Nc1c(C)cccc1C)/C(C)=N\NC(=O)C[N+](C)(C)C (configuration not stated)
inactive: SNB-19 > 100 µM | SW-620 > 100 µM | 786-0 > 100 µM | HL-60 > 100 µM | COLO 205 > 100 µM | KM12 > 100 µM | NCI-H460 > 100 µM | UACC-62 > 100 µM | OVCAR-3 > 100 µM | HOP-92 > 100 µM | OVCAR-4 > 100 µM | ACHN > 100 µM | M14 > 100 µM | RXF 393 > 100 µM | OVCAR-5 > 100 µM

O=C(Cc1ccccc1)N/N=C(/c1nc2ccc([N+](=O)[O-])cc2nc1O)C(O)c1ccco1 (configuration not stated)
inactive: SW-620 > 100 µM | 786-0 > 100 µM | HL-60 31.8 µM | COLO 205 > 100 µM | KM12 > 100 µM | NCI-H460 > 100 µM | EKVX > 100 µM | UACC-62 > 100 µM | HOP-92 > 100 µM | OVCAR-4 > 100 µM | ACHN 57.4 µM | SK-MEL-2 > 100 µM | M14 > 100 µM | OVCAR-5 > 100 µM

O=C(Nc1ccc(Cl)c(Cl)c1)C(=O)Nn1c(S)nc2ccccc2c1=O
inactive: SNB-19 > 100 µM | SW-620 > 100 µM | 786-0 > 100 µM | HL-60 > 100 µM | COLO 205 > 100 µM | KM12 > 100 µM | NCI-H460 > 100 µM | EKVX > 100 µM | UACC-62 > 100 µM | HOP-92 45.3 µM | OVCAR-4 > 100 µM | ACHN > 100 µM | SK-MEL-2 > 100 µM | M14 > 100 µM | RXF 393 > 100 µM | OVCAR-5 > 100 µM

Cn1c(=O)c2[nH]cnc2n(CC(N)=O)c1=O
inactive: SNB-19 > 100 µM | SW-620 > 100 µM | 786-0 > 100 µM | COLO 205 > 100 µM | KM12 > 100 µM | NCI-H460 > 100 µM | EKVX > 100 µM | UACC-62 > 100 µM | OVCAR-3 > 100 µM | HOP-92 > 100 µM | ACHN > 100 µM | SK-MEL-2 > 100 µM | M14 > 100 µM

CN1CCN(CCNc2ccc(CO)c3sc4ccccc4c(=O)c23)CC1
inactive: SNB-19 21 µM | SW-620 4.18 µM | 786-0 5.87 µM | HL-60 8.93 µM | COLO 205 8.77 µM | KM12 10.9 µM | NCI-H460 4.34 µM | UACC-62 13 µM | OVCAR-3 8.18 µM | HOP-92 13.4 µM | OVCAR-4 10.5 µM | ACHN 13.8 µM | SK-MEL-2 15 µM | M14 14.1 µM | OVCAR-5 16.6 µM

COc1ccc(-c2cc(Cc3cccs3)c(=O)[nH]n2)cc1
inactive: SNB-19 > 100 µM | SW-620 > 100 µM | 786-0 > 100 µM | COLO 205 > 100 µM | KM12 > 100 µM | EKVX > 100 µM | UACC-62 56.9 µM | OVCAR-3 29.6 µM | HOP-92 49.9 µM | ACHN 32.7 µM | SK-MEL-2 > 100 µM | RXF 393 83.8 µM | OVCAR-5 > 100 µM

O=C(CC(=O)Nc1cccc(Cl)c1)NNCC(=O)Nc1nnc(-c2ccccc2)s1
inactive: SNB-19 36 µM | SW-620 39.4 µM | 786-0 16.4 µM | HL-60 25.7 µM | COLO 205 > 100 µM | KM12 > 100 µM | NCI-H460 11.1 µM | EKVX 57.3 µM | UACC-62 62.4 µM | OVCAR-3 32.7 µM | OVCAR-4 2.46 µM | ACHN 39.8 µM | SK-MEL-2 > 100 µM | M14 30.4 µM | OVCAR-5 > 100 µM

COc1ccc2c(CCNS(=O)(=O)c3ccccc3)c(C(C)=O)[nH]c2c1[N+](=O)[O-]
inactive: SNB-19 > 100 µM | SW-620 > 100 µM | 786-0 77.8 µM | HL-60 > 100 µM | COLO 205 > 100 µM | KM12 > 100 µM | NCI-H460 > 100 µM | UACC-62 48.5 µM | OVCAR-3 > 100 µM | OVCAR-4 28.4 µM | ACHN > 100 µM | SK-MEL-2 > 100 µM | M14 > 100 µM | OVCAR-5 > 100 µM

CC(C)C(Nc1c2ccccc2[n+]([O-])c2ccccc12)C(=O)O (configuration not stated)
inactive: SNB-19 > 100 µM | SW-620 > 100 µM | 786-0 > 100 µM | HL-60 26.2 µM | COLO 205 52.5 µM | KM12 > 100 µM | NCI-H460 > 100 µM | EKVX > 100 µM | UACC-62 57.3 µM | OVCAR-3 > 100 µM | OVCAR-4 65.8 µM | ACHN 35.2 µM | SK-MEL-2 84.9 µM | M14 91.2 µM | OVCAR-5 > 100 µM

COc1ccc(-c2cc(-c3ccccc3)c(C#N)c(=O)[nH]2)cc1
inactive: SNB-19 > 100 µM | SW-620 > 100 µM | 786-0 > 100 µM | HL-60 > 100 µM | COLO 205 > 100 µM | KM12 > 100 µM | NCI-H460 > 100 µM | EKVX > 100 µM | UACC-62 > 100 µM | OVCAR-3 > 100 µM | HOP-92 > 100 µM | OVCAR-4 > 100 µM | ACHN > 100 µM | M14 > 100 µM | RXF 393 > 100 µM | OVCAR-5 > 100 µM

CCOC(=O)C(=Cc1ccc(C(=O)OC)cc1)C(=O)OCC
inactive: SNB-19 2.39 µM | SW-620 2.24 µM | 786-0 1.62 µM | HL-60 1.54 µM | COLO 205 1.85 µM | KM12 2.92 µM | NCI-H460 21.1 µM | EKVX 11.1 µM | UACC-62 2.04 µM | OVCAR-3 3.41 µM | HOP-92 1.67 µM | OVCAR-4 3.78 µM | ACHN 1.69 µM | SK-MEL-2 1.75 µM | M14 1.69 µM | OVCAR-5 7.16 µM

Nn1c(S)nnc1NNC(=O)C(=O)Nc1cc(Cl)c(Cl)cc1Cl
inactive: SNB-19 > 100 µM | SW-620 > 100 µM | 786-0 > 100 µM | COLO 205 > 100 µM | KM12 > 100 µM | NCI-H460 > 100 µM | EKVX > 100 µM | UACC-62 > 100 µM | OVCAR-3 > 100 µM | HOP-92 > 100 µM | OVCAR-4 > 100 µM | ACHN > 100 µM | M14 > 100 µM | RXF 393 > 100 µM | OVCAR-5 > 100 µM

[N-]=[N+]=CC(=O)C1(C(=O)C=[N+]=[N-])CC1
inactive: SNB-19 > 100 µM | SW-620 > 100 µM | 786-0 > 100 µM | HL-60 > 100 µM | COLO 205 > 100 µM | KM12 > 100 µM | NCI-H460 > 100 µM | EKVX > 100 µM | OVCAR-3 > 100 µM | OVCAR-4 > 100 µM | ACHN > 100 µM | SK-MEL-2 > 100 µM | M14 > 100 µM | RXF 393 > 100 µM | OVCAR-5 > 100 µM
